Data published in patent publication US8084429B2, “Compounds and their analgesic applications” (priority 2002, dated 2011).
Starred links: 1 amine or outer side, 2 acyl side, 3 side chain; linkers in the order of their positions; H or OH if unused. Positions of bridges follow the written chain, without caps; N, C: chain ends. Non-standard residues stand in square brackets, D forms with d. Residues, ends and D or L forms follow the SMILES beside them. Chains are numbered I, II in the order given. NHNH = N(N[*:2])[*:1]

System: rat
Assay: observation of undesirable effects after intrathecal administration
Type: in vivo
Protocol: A silicone catheter was introduced into the intrathecal space of a rat in the cervical region of the spine, having an external diameter of 0.64 mm and an internal diameter of 0.3 mm. The 12 cm long catheter was prepared in the following way: at a distance of 7.5 cm from the end of the catheter, a flange was made around it with soft silicone glue. The remaining 4.5 cm stretch of the catheter was extended to the outside and connected to a 30G needle mounted on a 25 microliter Hamilton syringe. The implantation of the catheter was made under general anaesthesia. After shaving the coat from the shoulders and neck, the rat was placed in a stereotactic apparatus. The 1.5 cm long incision was made centrally, front to rear, along the axis of the spine. After reaching the muscles, they were prised apart and access to the basal membrane was prepared. The basal membrane was incised. The prepared catheter, filled with a sterile physiological saline solution, was inserted the through the incision in the membrane to a depth of 7.5 cm towards the rear, so that its end was found at the location of the L1. The muscle and skin were sutured. After recovery from general anaesthesia the rats were placed in separate cages. Biphaline was administered and measurements were made during the second day following the operation. All epidural injections were made at a constant volume of 10 microliters. Following the injection, the catheter was rinsed with 15 microliters of sterile physiological saline solution. Analgesis was measured in relation to a tail retraction test to which a thermal stimulus was applied in the form of a beam of light with a temperature of 55° C. The temperature and focus of the light was such that the time of reaction of the rat fit within the 2-3 second margin. The maximum time that the tail was agitated with the pain-stimulating light stimulus was set as 7 seconds, so as not to cause tail burns connected with a prolonged exposure of tissues to temperature. The pain-stimulating stimulus threshold was determined previous to administration of the compounds, as well as at the 5, 15, 30, 60 and 120 minutes following the administration. The degree of analgesis was expressed as a percent of the maximum possible effect (denoted as % MPE) according to the following equation: […]

NC(=O)CC[C@@H](NC(=O)[C@@H](N)Cc1ccc(O)cc1)C(=O)NCC(=O)N[C@@H](Cc1ccccc1)C(=O)NNC(=O)[C@H](Cc1ccccc1)NC(=O)CNC(=O)[C@@H](CCC(N)=O)NC(=O)[C@@H](N)Cc1ccc(O)cc1 [(Tyr-D-Gln-Gly-Phe-NH—)2, (Tyr-D-Gln-Gly-Phe-NH-)2] (I: H-Y[dQ]GF / II: H-Y[dQ]GF; linker I:C-II:C via NHNH)
undesirable effects (0.05 micrograms intrathecal): No undesirable effects were observed

CC(C)C[C@@H](NC(=O)[C@@H](N)Cc1ccc(O)cc1)C(=O)NCC(=O)N[C@@H](Cc1c[nH]c2ccccc12)C(=O)NNC(=O)[C@H](Cc1c[nH]c2ccccc12)NC(=O)CNC(=O)[C@@H](CC(C)C)NC(=O)[C@@H](N)Cc1ccc(O)cc1 [(Tyr-D-Leu-Gly-Trp-NH—)2, (Tyr-D-Leu-Gly-Trp-NH-)2] (I: H-Y[dL]GW / II: H-Y[dL]GW; linker I:C-II:C via NHNH)
undesirable effects (0.05 micrograms intrathecal): No undesirable effects were observed

CSCC[C@@H](NC(=O)[C@@H](N)Cc1ccc(O)cc1)C(=O)NCC(=O)N[C@@H](Cc1ccccc1)C(=O)NNC(=O)[C@H](Cc1ccccc1)NC(=O)CNC(=O)[C@@H](CCSC)NC(=O)[C@@H](N)Cc1ccc(O)cc1 [(Tyr-D-Met-Gly-Phe-NH—)2, (Tyr-D-Met-Gly-Phe-NH-)2] (I: H-Y[dM]GF / II: H-Y[dM]GF; linker I:C-II:C via NHNH)
undesirable effects (0.05 micrograms intrathecal): No undesirable effects were observed

C[C@H](O)[C@@H](NC(=O)[C@@H](N)Cc1ccc(O)cc1)C(=O)NCC(=O)N[C@@H](Cc1ccccc1)C(=O)NNC(=O)[C@H](Cc1ccccc1)NC(=O)CNC(=O)[C@H](NC(=O)[C@@H](N)Cc1ccc(O)cc1)[C@H](C)O [(Tyr-D-Thr-Gly-Phe-NH—)2, (Tyr-D-Thr-Gly-Phe-NH-)2] (I: H-Y[dT]GF / II: H-Y[dT]GF; linker I:C-II:C via NHNH)
undesirable effects (0.05 micrograms intrathecal): No undesirable effects were observed

C[C@@H](NC(=O)[C@@H](N)Cc1ccc(O)cc1)C(=O)NCC(=O)N[C@@H](Cc1ccccc1)C(=O)NNC(=O)[C@H](Cc1ccccc1)NC(=O)CNC(=O)[C@@H](C)NC(=O)[C@@H](N)Cc1ccc(O)cc1 [biphaline, (Tyr-D-Ala-Gly-Phe-NH-)2]
undesirable effects (0.005 micrograms, then 0.003 micrograms every half hour for 8 hours, intrathecal): No undesirable effects were observed
undesirable effects (0.5 micrograms intrathecal): No undesirable effects were observed
duration of stiffness (25 micrograms intrathecal): 4 h
muscle stiffness (25 micrograms intrathecal, after three minutes following the injection): stiffness of limb and back muscles was observed
respiratory ability (25 micrograms intrathecal, during stiffness): respiratory ability was maintained
respiratory depression (extremely high dosages, as much as a thousand-fold the minimal effective analgesic dose): did not cause respiratory depression
